In patent US6458387B1, “Sustained release microspheres” (priority 1999, dated 2002):

Legend:
[1] = HSA microspheres, carbonyl diimidazole coupling
Experimental: Carbonyl diimidazole (100 mg, Sigma Chemical Co., St. Louis, Mo.) was added to a solution of 36 mg of the antiviral drug Virazole Registered TM (ICN Pharmaceuticals, Inc., Costa Mesa, Calif.) in 0.2 ml of dimethylformamide (DMF). The resulting mixture was allowed to stand at room temperature for four hours. To the mixture was added a mixture of 0.2 ml of human serum albumin (HSA) (25%, Armour Pharmaceutical Co., Collegeville, Pa.) and 0.4 ml of deionized water. The mixture was incubated for 30 minutes at room temperature, for 30 minutes at 37° C., and for 30 minutes at 58° C. and then cooled to room temperature. Particles were isolated by centrifugation, washed with deionized water three times and resuspended in 20 ml of water.

[2] = In vitro release from leuprolide acetate/HSA microspheres (Example 5); format: physicochemical; conditions: leuprolide acetate/HSA/dextran sulfate/PEG/PVP microspheres
Experimental: A 0.010 mL aliquot of a solution of 10-100 mg/mL leuprolide acetate in water (LHRH, TAP Pharmaceuticals, Deerfield, Ill.) was added to 0.168 mL of a 2-10% (weight/volume) solution of dextran sulfate in water (average molecular weight 500 kDa), and the solution was thoroughly mixed. To the leuprolide/dextran solution was added a 0.856 niL aliquot of a solution containing 25% (weight/volume) polyethylene glycol, having an average molecular weight of 3.35 kDa (Spectrum, Gardena, Calif.), and 25% (weight/volume) polyvinylpyrrolidone, having an average molecular weight of 40 kDa, in an aqueous solution of 0.1M sodium acetate, pH 5.5. The resulting solution was thoroughly mixed and allowed to stand for up to 30 minutes. A 0.25 mL aliquot of a 20% (weight/volume) solution of human serum albumin (Sigma Chemical Co., St. Louis, Mo.) in water was then added to the solution. The final solution was thoroughly mixed and placed in a water bath at between 70° C. and 90° C. for a period of time between 30 minutes and 3 hours.
In vitro release of leuprolide acetate was measured by centrifugation of microspheres and resuspension in a phosphate buffered saline release medium.

[3] = set-up: species or system dogs; conditions: dog
Experimental: The microspheres were formed and precipitated from solution. […] Estradiol was then loaded into human serum albumin microspheres at 3 different weight percent loadings. The estradiol was dissolved in ethyl alcohol and incubated in the presence of the albumin microspheres. […] The 10% by weight estradiol containing microspheres contained 1 mg of estradiol and 8.33 mg of Human Serum Albumin (HSA). The 49% by weight estradiol containing microspheres contained 8.15 mg of estradiol and 8.33 mg of HSA. The 77% by weight estradiol containing microspheres contained 27.68 mg of estradiol and 8.33 mg of HSA
The microspheres were injected into five dogs and the resulting serum concentrations were determined by radioimmuno assay for estradiol.

[4] = human serum albumin microspheres; 0.01M, 0.1M or 1M zinc sulfate
Experimental: Nafarelin acetate (Roche Laboratories, Nutley, N.J.) was dissolved in deionized water to produce a 10 mg/ml solution.
To 1 mg of nafarelin acetate was added 10 mg of the human serum albumin microspheres. The mixture was vortexed and mixed for 16 hours at 4° C. A 3M ammonium sulfate solution was added to the mixture to a final concentration of 0.5M and vortexed and mixed for 15 minutes at ambient temperature.
The mixtures were centrifuged, supernatant decanted and pellet resuspended in deionized water three times to wash the microspheres.

SMILES | percentage of drug incorporated into the particles [1] | effect of additive on release of protein and peptide from the microspheres [2] | other results
CO[C@H]1/C=C/O[C@@]2(C)Oc3c(C)c(O)c4c(O)c(c(/C=N/N5CCN(C)CC5)c(O)c4c3C2=O)NC(=O)/C(C)=C\C=C\[C@H](C)[C@H](O)[C@@H](C)[C@@H](O)[C@@H](C)[C@H](OC(C)=O)[C@@H]1C [Rifampicin TM, 3-[4-methylpiperazinyliminomethyl] rifamycin] | greater than 6.8% | – | –
NC(=O)c1ncn([C@@H]2O[C@H](CO)[C@@H](O)[C@H]2O)n1 [Virazole Registered TM] | 10% | – | –
CCCCCCCC(=O)O [caprylic acid] | – | retarded the release | –
C[C@]12CC[C@@H]3c4ccc(O)cc4CC[C@H]3[C@@H]1CC[C@@H]2O [estradiol control, estradiol] | – | – | half life of estradiol in vivo [3]: shortest half life
O=S(=O)([O-])[O-].[Zn+2] [zinc sulfate] | – | retarded the release | effect of additive on rate of release of nafarelin acetate [4]: reduced the rate of release
